This is an account of results in patent US10898465B2, “Utility of (+) epicatechin and their analogs” (Epirium Bio Inc., priority 2016, dated 2021).

Series [1] relates to Electron Transport Chain Complex IV. Description: increase of the expression of Electron Transport Chain IV (ETC IV). The note with it: for EC50: increase of expression of ETC IV, read-out: EC50 on mitochondrial ETC complexes: Electron Transport Chain Complex IV. In kind it is cell-based. From the text:
The present invention discloses a remarkable range of biological activity across the two enantiomers of epicatechin, something heretofore not described for flavonoids as a class. The enantiomer of (−)-epicatechin is (+)-epicatechin. […]

The nature of series [2]: Effect on triglyceride level in animals on High Fat Diet. The note with it: 15 days. In kind it is in vivo, mice. How it is done:
Animals were placed on High Fat Diet (HFD) until they gain more than 20% of Body weight compared with animals on standard chow and reached glycemia levels ≥200 mg/dL (usually 4-6 weeks). Animals were randomly assigned to Control (obese group) receiving vehicle only (by gavage): n=12; (+)-Epicatechin—orally by gavage: n=10: (−)-Epicatechin—orally by gavage: n=10.
All animals were treated for 15 days and continued under HFD. The results are presented at FIG. 3.

A short description of series [3]: Oral pharmacokinetic study in mice, plasma LC-MS/MS. The note with it: 10 mpk, female Balb C mice. In kind it is in vivo. The method, then: Female Balb C mice 4 per group after overnight fasting were dosed orally (via gavage) with compound 1 in 5% NMP in normal saline (10 ml/kg). Blood was collected by serial bleeding at 0.16 hr, 0.5 hr, 1 hr, 2 hr, 4 hr, 6 hr, 8 hr in heparinized tubes. Blood samples were centrifuged at 10,000 rpm for 5 min. at 4° C. to obtain the plasma, which were aspirated into separate labeled tubes and stored at −80° C. 400 ng/ml of standard in acetonitrile was used as the drug extraction solvent for extracting drug from plasma. Extraction solvent was added to plasma was vortexed and shaken on shaker for 10 minutes, centrifuged at 10,000 rpm for 10 minutes at 4° C. Supernatant was kept for analysis.
Acetonitrile and plasma calibration curves were generated and percentage of drug recovery from plasma determined. Quantitative analysis was done by liquid chromatography tandem mass spectrometer (API3200 LC-MS/MS). Cmax, Tmax, AUC and t1/2 were calculated using Graph Pad PRISM version 5.04 and the results were depicted in Table 3.

The test system of series [4] is AMP kinase. In words: cell-based fluorescent ELISA of AMP kinase phosphorylation status in cultured cells. The note with it: AMP kinase phosphorylation (pAMPK) in cultured cells. The method, then: The compounds of the present invention were tested for their activity on AMP kinase. The activity on AMP kinase was evaluated by quantitative fluorescent immunoenzymatic assay of AMP kinase phosphorylation status in cultured cells. The 5-AMP-activated protein kinase (AMP kinase) is a key sensor of intracellular energy balance. AMP kinase is activated in response to an increase in the AMP/ATP ratio which can be caused by a number of factors such as muscle contraction, starvation, or hypoxia. AMP kinase is a heterotrimeric protein complex comprising of (63 kDa),—(38 kDa) and—•(38 kDa) subunits. For each subunit, isoforms have been identified (1, 2, 1, 2, 1, 2, 3) which theoretically allow the formation of 12 different proteins. The -subunit contains a serine/threonine kinase domain and the regulatory subunits contain binding sites for AMP and ATP (-subunit) and for glycogen (-subunit). AMP kinase is activated by phosphorylation on Thr-172 within the catalytic domain. AMP binding results in a 2 to 5-fold increase in AMP kinase activity compared to the basal level. […]
BioAssay Systems' cell-based ELISA measure phosphorylated AMP kinase in whole cells and normalizes the signal to the total protein content. […] AMP kinase phosphorylation (pAMPK) is measured using a fluorescent ELISA followed by total protein measurement in each well.
On the technique in general: In an ELISA, binding on a coated surface is turned into a signal by an enzyme label.

Where two headings read alike, the source gives them in different places.

As usually defined, the EC50 is the concentration at which the effect is half-maximal. One may read the AUC as the area under the concentration-time curve, a measure of exposure. For `Oc1cc(O)c2c(c1)O[C@@H](c1ccc(O)c(O)c1)[C@@H](O)C2` [(+)-Epicatechin], the “fold more potent than (−)-epicatechin on increase of the expression of ETC IV” value in series [1] ((+)-epicatechin versus (−)-epicatechin) is “approximately 400 fold”. Moreover, the EC50 in series [1] came out at 0.1 µM. Also, in series [2] (0.003 vs 0.1 mg/Kg/day, oral), the “improvement over (−)-epicatechin in dose giving the same triglyceride reduction” value is more than 30 fold. In addition, the “reduction in triglyceride levels” value in series [2] ((+)-epicatechin 0.003 mg/Kg/day vs (−)-epicatechin 0.1 mg/Kg/day, orally by gavage, FIG. 3 triglycerides content of livers) is “shows the same reduction in triglyceride levels as (−)-epicatechin”. In series [3], the AUC stood at 0.683 µM·h and the “Elimination t½” value is 2.13 h.
Consider `Oc1cc(O)c2c(c1)O[C@H](c1ccc(O)c(O)c1)[C@H](O)C2` [(−)-Epicatechin, reference compound], for which the EC50 in series [1] was 40 µM.
For `CCCCCCCC(=O)Oc1cc(O)cc2c1C[C@H](O)[C@H](c1ccc(O)c(O)c1)O2` [Compound 1001, (2S,3S)-2-(3,4-dihydroxyphenyl)-3,7-dihydroxychroman-5-yl octanoate], the “concentration at which AMPK activity is exhibited” value in series [4] turned out to be 1 nM. Besides, in series [3] (mouse, 10 mg/kg, read-out: AUC), the AUC is 2.8 µM·h. The half-life in series [3] (mouse, 10 mg/kg, read-out: Elimination t½ (converted)) was 4.5 h.
